21 compounds from patent US10934274B2, “Quinoline derivatives as TAM RTK inhibitors” (Qurient Co., Ltd., priority 2015, dated 2021) can be followed below.

One experiment deals with T1, Axl (Homo sapiens, UniProt P30530).
T1 construct: purchased Life Technologies
T1 sequence (P30530 26-894): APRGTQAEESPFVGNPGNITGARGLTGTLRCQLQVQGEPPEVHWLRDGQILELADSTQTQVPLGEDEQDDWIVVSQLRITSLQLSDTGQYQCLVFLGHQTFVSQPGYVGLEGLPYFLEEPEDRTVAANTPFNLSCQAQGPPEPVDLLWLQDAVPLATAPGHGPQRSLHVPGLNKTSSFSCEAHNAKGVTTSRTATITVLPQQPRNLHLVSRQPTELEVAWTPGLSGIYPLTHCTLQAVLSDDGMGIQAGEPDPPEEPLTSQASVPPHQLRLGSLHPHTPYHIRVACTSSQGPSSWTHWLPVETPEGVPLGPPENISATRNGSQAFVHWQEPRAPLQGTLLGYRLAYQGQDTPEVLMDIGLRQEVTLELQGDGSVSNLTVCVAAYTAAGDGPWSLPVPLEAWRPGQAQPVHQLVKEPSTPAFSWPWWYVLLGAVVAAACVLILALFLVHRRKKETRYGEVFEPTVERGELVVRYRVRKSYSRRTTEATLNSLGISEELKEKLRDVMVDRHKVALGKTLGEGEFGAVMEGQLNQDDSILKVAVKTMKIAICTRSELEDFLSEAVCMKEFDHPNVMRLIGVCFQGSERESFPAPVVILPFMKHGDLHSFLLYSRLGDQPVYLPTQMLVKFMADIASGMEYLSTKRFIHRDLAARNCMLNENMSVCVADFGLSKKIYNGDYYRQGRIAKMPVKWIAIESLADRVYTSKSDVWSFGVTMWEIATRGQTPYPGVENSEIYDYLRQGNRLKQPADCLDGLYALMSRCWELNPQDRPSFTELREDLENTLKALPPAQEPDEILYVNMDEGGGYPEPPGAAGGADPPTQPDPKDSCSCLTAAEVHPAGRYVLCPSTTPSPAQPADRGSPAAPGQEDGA
Nature of the experiment: LanthaScreen Eu kinase binding assay, Axl. To be noted: Tracer 236.

Another experiment deals with HCC827/ER cells. In words: WST-1 cell viability assay in erlotinib-resistant cells. To be noted: compound combined with Erlotinib at constant 1:1 ratio, 3 days, FBS 1%. (In general: Tetrazolium dyes change colour on reduction, which living cells bring about.)
The target of another experiment is T2, Mer (Homo sapiens, UniProt Q12866).
T2 construct: purchased Life Technologies
T2 sequence (Q12866 21-999): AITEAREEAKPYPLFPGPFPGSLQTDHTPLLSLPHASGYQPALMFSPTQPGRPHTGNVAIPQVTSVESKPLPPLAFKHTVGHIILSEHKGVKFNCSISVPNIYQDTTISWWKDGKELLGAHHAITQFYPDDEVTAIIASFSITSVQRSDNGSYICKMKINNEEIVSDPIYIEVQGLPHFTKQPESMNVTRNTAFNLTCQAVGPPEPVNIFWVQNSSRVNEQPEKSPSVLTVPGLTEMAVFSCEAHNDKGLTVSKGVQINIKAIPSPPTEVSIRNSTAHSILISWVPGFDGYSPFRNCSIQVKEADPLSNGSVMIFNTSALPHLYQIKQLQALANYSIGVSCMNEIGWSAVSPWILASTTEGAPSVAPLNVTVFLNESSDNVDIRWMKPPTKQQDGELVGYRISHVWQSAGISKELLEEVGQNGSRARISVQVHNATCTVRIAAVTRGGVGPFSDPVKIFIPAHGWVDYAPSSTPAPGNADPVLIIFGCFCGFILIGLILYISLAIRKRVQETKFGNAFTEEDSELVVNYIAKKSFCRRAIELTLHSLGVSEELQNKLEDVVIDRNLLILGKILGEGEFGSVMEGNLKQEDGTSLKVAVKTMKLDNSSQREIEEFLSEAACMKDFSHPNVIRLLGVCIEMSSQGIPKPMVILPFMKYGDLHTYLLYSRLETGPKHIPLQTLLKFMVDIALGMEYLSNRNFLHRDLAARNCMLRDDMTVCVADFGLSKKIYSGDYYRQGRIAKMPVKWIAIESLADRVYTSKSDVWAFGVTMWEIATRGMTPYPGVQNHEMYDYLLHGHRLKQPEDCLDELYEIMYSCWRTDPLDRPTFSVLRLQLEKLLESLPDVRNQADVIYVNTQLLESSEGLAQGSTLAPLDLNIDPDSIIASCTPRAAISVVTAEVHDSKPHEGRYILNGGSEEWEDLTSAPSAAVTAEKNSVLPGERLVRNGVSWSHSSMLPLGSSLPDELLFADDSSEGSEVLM
Nature of the experiment: LanthaScreen Eu kinase binding assay, Mer. Conditions: Tracer 236. (In general: Time-resolved FRET reads energy transfer from a long-lived donor to a nearby acceptor.)

A word on the Kd: it is the free concentration of one partner at which half of the binding sites on the other are occupied at equilibrium, for simple one-to-one binding. The low end stands for a tighter complex, the high end for a looser complex.

Where only a bound is given, the exact number is not on record here.

Description for HCC827/ER cells: The killed cells were discarded and the remaining cells were cultured in a drug-free medium up to 80% confluence. Subsequently, cells were continuously exposed to increasing drug doses of up to 10 μM over a period of 8 months.
HCC827/ER cells were seeded in a 96-well plate with their respective media containing 10% FBS at 5000 cells/well. After seeding, the HCC827/ER cells were incubated for approximately 24 hours. […] The viability of the HCC827/ER cells was determined by adding WST-1 reagent according to Manufacturer's instructions (DoGenbio co., Ltd) and incubating for four hours. The plates were then read using an absorbance of 440 nm on Tecan Microplate reader (Infinite M200 pro, TECAN). The HCC827/ER cells' viability were calculated relative to vehicle (DMSO) control wells.

With `CCOc1cn(-c2c(C)ccnc2C)nc1C(=O)Nc1ccc(Oc2ccnc3cc(OC)c(OC)cc23)cn1` [Compound 132], the equilibrium dissociation constant (Kd) on Axl and at Mer was < 100 nM in each case. For the same compound, in the experiment on HCC827/ER cells, the “Combination effect of compound and erlotinib on inhibition activity in Erlotinib-resistant cell-line” value is “synergistic effect”.

Consider `CCOc1cn(-c2cncnc2C)nc1C(=O)Nc1ccc(Oc2ccnc3cc(OC)c(OC)cc23)cn1` [Compound 149], for which the dissociation constant Kd on Axl and on Mer was < 100 nM in each case. Further, the “Combination effect of compound and erlotinib on inhibition activity in Erlotinib-resistant cell-line” value with HCC827/ER cells is on record as “synergistic effect”.

Consider `CCOc1cn(-c2nccnc2C(C)(C)O)nc1C(=O)Nc1ccc(Oc2ccnc3cc(OC)c(OC)cc23)cn1` [Compound 200], for which the Kd at Axl and at Mer was < 100 nM in each case.

On to `CCOc1cn(-c2ccc(OC(F)(F)F)cc2Cl)nc1C(=O)Nc1ccc(Oc2ccnc3cc(OC)c(OC(F)(F)F)cc23)cn1` [Compound 201], for which the dissociation constant (Kd) on Axl is ≥ 1000 nM; at Mer, 100 to 1000 nM.

Regarding `CCOc1cn(-c2ccc(C(F)(F)F)cc2C)nc1C(=O)Nc1ccc(Oc2ccnc3cc(OC)c(OC)cc23)cn1` [Compound 99], the dissociation constant Kd on Axl and at Mer was < 100 nM in each case.

As for `CCOc1cn(-c2cnccc2C(F)(F)F)nc1C(=O)Nc1ccc(Oc2ccnc3cc(OC)c(OC)cc23)cc1F` [Compound 196], the Kd on Axl and at Mer was < 100 nM in each case.

As for `CCOc1cn(-c2cnccc2CCO)nc1C(=O)Nc1ccc(Oc2ccnc3cc(OC)c(OC)cc23)cn1` [Compound 181], the Kd at Axl and on Mer was < 100 nM in each case.

As to `CCOc1cnn(-c2ccc(Cl)c(CN(C)C)c2)c1C(=O)Nc1ccc(Oc2ccnc3cc(OC)c(OC)cc23)cn1` [Compound 130], the Kd at Axl and on Mer was < 100 nM each time.

`CCOc1cn(-c2ccc(OC(F)(F)F)cc2F)nc1C(=O)Nc1ccc(Oc2ccnc3cc(OC)c(OC)cc23)cn1` [Compound 120]: the Kd on Axl and at Mer was < 100 nM each time.

As for `CCOc1cn(-c2cnccc2C(C)(C)O)nc1C(=O)Nc1ccc(Oc2ccnc3cc(OC)c(OC)cc23)cc1F` [Compound 197], the dissociation constant Kd on Axl and on Mer was < 100 nM each time.

Turning to `CCOc1cn(-c2cccnc2)nc1C(=O)Nc1ccc(Oc2ccnc3cc(OC(C)CC)c(OC)cc23)cn1` (centres unmarked) [Compound 206], the dissociation constant (Kd) on Axl and at Mer was < 100 nM in each case.

With `CCOc1cn(-c2ccc(C(F)(F)F)cc2C(F)(F)F)nc1C(=O)Nc1ccc(Oc2ccnc3cc(OC)c(OC)cc23)cn1` [Compound 105], the dissociation constant (Kd) on Axl and on Mer was < 100 nM throughout.

For `CCOc1cnn(-c2ccc(C(F)(F)F)cc2C(F)(F)F)c1C(=O)Nc1ccc(Oc2ccnc3cc(OC)c(OC)cc23)cn1` [Compound 110], the dissociation constant Kd is < 100 nM on Axl and 100 to 1000 nM on Mer.

In the case of `CCOc1cn(-c2cnccc2CO)nc1C(=O)Nc1ccc(Oc2ccnc3cc(OC)c(OC)cc23)cc1F` [Compound 209], the Kd on Axl and at Mer was < 100 nM each time.

As for `CCOc1cn(-c2nccnc2Cl)nc1C(=O)Nc1ccc(Oc2ccnc3cc(OC)c(OC)cc23)cn1` [Compound 177], the Kd on Axl and on Mer was < 100 nM each time.

Consider `CCOc1cn(-c2cnccc2CO)nc1C(=O)Nc1ccc(Oc2ccnc3cc(OC)c(OC)cc23)c(F)c1` [Compound 207], for which the Kd on Axl and at Mer was < 100 nM throughout.

As for `CCOc1cn(C2CCCN(C)C2)nc1C(=O)Nc1ccc(Oc2ccnc3cc(OC)c(OC)cc23)cc1F` (centres unmarked) [Compound 211], the Kd on Axl and on Mer was 100 to 1000 nM throughout.

In the case of `COc1cc2nccc(Oc3ccc(NC(=O)c4nn(-c5cccnc5)cc4OCC(F)(F)F)nc3)c2cc1OC` [Compound 185], the Kd at Axl and at Mer was < 100 nM each time.

As for `CCOc1cn(-c2ccnc(O)c2)nc1C(=O)Nc1ccc(Oc2ccnc3cc(OC)c(OC)cc23)cn1` [Compound 7], the results for the dissociation constant Kd on Axl and on Mer were ≥ 1000 nM and < 100 nM, respectively.

For `CCOc1cn(-c2ccc(F)cc2F)nc1C(=O)Nc1ccc(Oc2ccnc3cc(OC)c(OC)cc23)cn1` [Compound 107], the Kd at Axl and on Mer was < 100 nM in each case.

Consider `CCOc1cn(-c2ncc(Cl)cc2C#N)nc1C(=O)Nc1ccc(Oc2ccnc3cc(OC)c(OC)cc23)cn1` [Compound 133], for which the dissociation constant Kd at Axl and on Mer was < 100 nM throughout.
